Like-named read-outs stand apart in the source and are kept apart here.
What was measured:
mNG::RAD51 promastigotes = experiment: mNG::RAD51 nuclear foci studies; format: cell-based, Leishmania (L.) mexicana; settings: 25 μg mL-1, from 2 h posttreatment
Description: DSBs often lead to cytotoxicity, which could be an explanation for the observed compound activity.[44]−[46]Leishmania employ the RAD51 DNA recombinase protein as part of its DNA repair machinery to fix naturally occurring nuclear DSBs via homologous recombination.[47]−[50] Using a CRISPR/Cas9 gene editing strategy,[51] we generated a genetically modified cell line with mNeonGreen tagged RAD51. This would allow observation of fluorescent RAD51 protein recruitment to foci in the nucleus corresponding to DSB accumulation, as has been shown in T. brucei.[52],[53] Phleomycin was used as a positive control to induce DSBs,[54] which led to the expected observation of accumulation of RAD51 as green dots in the nucleus in 80% of cells from as early as 2 h posttreatment (Figure 2D). […] We can therefore conclude that the BI compounds tested are unlikely to act via DSBs (albeit this methodology is sensitive only to DSBs in nuclear DNA), and another mechanism of cell cycle disruption is responsible for the breakdown in the healthy cell cycle.
(§1) NCTC cells (6 × 10^4/well) were added to a 96-well plate. Treatments of the cells with selected compounds (serially diluted 1.5 to 200 μM) was performed in a humidified incubator for 96 h at 37 °C and with 5% CO2.
(§2) The MTT colorimetric method was used to determine the 50% cytotoxic concentration (CC50) and the selectivity index (CC50 against NCTC cells/IC50 against amastigotes).15 […]
[…] […] Statistical significance was derived from a two-tailed T-test.
The Graph Pad Prism 5 software was used to perform sigmoid dose-response curves for the determination of […]
(§3) […] At 6 h and 24 h post-treatment, a 1 mL aliquot was taken for imaging. The cell cycle experiment was preformed twice independently.
(§4) Generation of mNG::RAD51 tagged cell line
(§5) The single-stranded DNA-binding protein RAD51, associated with DNA Repair, LmxM.28.0550 was tagged with endogenous fluorescent protein mNeonGreen (mNG) at the N-terminus. […]
Primers for constructs and sgRNA were designed using LeishGEdit (http://www.leishGEdit.net). […]

T. cruzi epimastigotes = system: T. cruzi epimastigotes; set-up: method as in PMID 26625837, PMID 12203262, PMID 3253497, PMID 25629555, PMID 3075676; settings: reported antiparasitic activity; cited from earlier work
[1] = system: L. donovani promastigotes; set-up: method as in PMID 26625837, PMID 12203262, PMID 3253497, PMID 25629555, PMID 3075676; settings: reported antiparasitic activity; cited from earlier work
T. cruzi trypomastigotes = experiment: Antitrypomastigote assay (T. cruzi), resazurin; format: cell-based, Trypanosoma (T.) cruzi; settings: 24 h, read-out: T. cruzi IC50 trypomastigotes
Protocol: (§6) T. cruzi also assumes several cell morphologies during its lifecycle, which differ between the insect vector and mammalian host. In the latter environment, the parasite transitions between extracellular bloodstream trypomastigotes and intracellular amastigotes; both forms are clinically relevant, particularly during the acute stage of Chagas disease.[34] In this work, antitrypanosomal activity was tested against both the amastigote form (evaluated microscopically using an ex vivo intracellular model using mice macrophages) and the trypomastigote form (using the resazurin in vitro assay).[33],[35] […] In silico predictions of pharmacokinetic profiles were carried out using the SwissADME webtool (see the Supporting Information for details).[36] […]
(§7) […] Cultivation was performed in 2% fetal calf serum supplemented RPMI-1640 medium.
(§8) The trypomastigotes were maintained in a humidified incubator at 37 °C and with 5% CO2. […]
(§9) Biological activity assays […]
The half inhibitory concentration (IC50) was determined from a sigmoidal regression of the concentration-response curves generated in GraphPadPrism7. […]
Treatment of the cells with selected compounds (serially diluted 1.2 to 150 μM) was performed in a humidified incubator in RPMI 1640 medium for 24 h at 37 °C and with 5% CO2. Resazurin (0.011% in PBS) was added subsequently to verify parasite viability. Benznidazole was used as a standard drug. The optical density was determined at 570 nm using the FilterMax F5 (Molecular Devices). […]

[2] = system: L. infantum promastigotes; experiment: Antipromastigote assay (L. infantum), MTT colorimetric; format: cell-based, Leishmania (L.) infantum; settings: 48 h; for IC50: read-out: L. infantum IC50 promastigotes
Protocol: (§10) Table 1 depicts the antileishmanial (L. infantum) activity evaluation performed against both the amastigote form (evaluated microscopically using an ex vivo intracellular model of mice macrophages) and the promastigote one (using an MTT colorimetric method).[32],[33] The cytotoxicity was evaluated against NCTC cells using an MTT colorimetric method and the selectivity index was determined using the ratio between the CC50 values (NCTC cells) and the IC50 values (amastigotes).[32] […] With respect to the substituents on the C ring, larger, hydrophobic groups conferred greater bioactivity (e.g., 9b–d), whereas small, hydrophilic groups such as a hydroxyl group afford modest to poor bioactivity.
(§11) Leishmania (L.) infantum (MHOM/BR/1972/LD) amastigotes were obtained from golden hamsters (Mesocricetus auratus) spleens following 60-70 days of infection via differential centrifugation. The Stauber method was used to determine the number of parasites.12 […]
Biological activity assays
Antipromastigote Assay (L. infantum)
L. infantum promastigotes (1 × 10^6 cells/well) were added to a 96-well plates. Treatment of the cells with selected compounds (serially diluted 0.14 to 200 μM) was performed in M199 medium supplemented with 0.25% hemin and 10% fetal bovine serum for 48 h at 24 °C. The MTT colorimetric assay was used to determine the activity (IC50) of the compounds. Miltefosine was used as a standard drug and untreated promastigotes were used as a negative control. The half inhibitory concentration (IC50) was determined from a sigmoidal regression of the concentration-response curves generated in GraphPadPrism7. […]

L. infantum amastigotes = experiment: Antiamastigote assay (L. infantum), ex vivo intracellular model of mice macrophages, microscopy; format: cell-based, Leishmania (L.) infantum; settings: 96 h, read-out: L. infantum IC50 amastigotes
Protocol: as §10, §11
(§12) Peritoneal macrophages were obtained via washing the peritoneal cavity of BALB/c mice with 10% foetal calf serum supplemented RPMI-1640 medium (pH 7.2). The macrophages were maintained in a humidified incubator at 37 °C and with 5% CO2.
as §9
Antiamastigote Assay (L. infantum)
Peritoneal macrophages (1 × 10^5/well) were added to a 16-well slide chambers (NUNC) and incubated with 5% CO2 at 37 °C. The cells were subsequently infected with L. infantum amastigotes (10:1 amastigotes/macrophage) for 24 h. Treatment of the cells with selected compounds (serially diluted 1.2 to 150 μM) was performed in a humidified incubator for 96 h at 37 °C and with 5% CO2. Untreated cells were used as a negative control and miltefosine was used as a standard drug. The treated cells were fixed on slides with methanol, stained with Giemsa and observed under a light microscope.13 The infection index was used in order to determine the half inhibitory concentration (IC50) (no. infected macrophages × no. amastigotes / total no. […]

NCTC cells = experiment: Mammalian toxicity, MTT colorimetric; format: cell-based, murine
Protocol: as §10, with “bioactivity. […]” for “bioactivity.”
(§13) Murine conjunctive fibroblasts NCTC clone 929 (ATCC) were maintained in 10% foetal calf serum supplemented RPMI-1640 medium (pH 7.2) at 37 °C in a humidified incubator with 5% CO2. […]
as §9, §1, §2, §3, §4, §5
(§14) Primers for constructs and sgRNA were designed using LeishGEdit (http://www.leishGEdit.net).
(§15) PCR was at 94 °C for 5 min, followed by 35 cycles at 94 °C (15 sec), 65 °C (15 sec), 72 °C (2 min) then finally 72 °C (1 min).
(§16) PCR was at 94 °C for 30 sec, followed by 30 cycles at 94 °C (30 sec), 60 °C (30 sec), 72 °C (30 sec) then finally 72 °C (2 min). […] Combined PCR products were precipitated for 20 min with 10 μL 3M sodium acetate and 300 μL EtOH, pelleted at 14000 min-1 30 min, washed once with 70% EtOH, re-pelleted and resuspended in […]
(§17) Promastigotes (1 × 10^7 cells) were combined with PCR products and transfected using the Amaxa Nucleofector II.17 Electroporation was performed using 2 mm cuvettes on the X-100 program, followed by immediate suspension in pre-warmed M199 medium. Successful transfectants were selected with 20 μg mL-1 Puromycin 15 h after transfection, taking 4 days to reach stable growth in culture. mNG::RAD51 nuclear foci studies mNG::RAD51 promastigotes (5 × 10^6 cells mL-1) in 7 mL of M199 medium were treated with 7 μL o f compound (S)-9a or (S)-9b dissolved in DMSO giving a final concentration of 50 μM. Phleomycin was used as a positive control at a final concentration of 25 μg mL-1. At T = 0, 15, 30, 60 min, and 2, 6, 24 h post-treatment a 0.8 mL aliquot was taken for imaging.

T. cruzi amastigotes = experiment: Antiamastigote assay (T. cruzi), ex vivo intracellular model using mice macrophages, microscopy; format: cell-based, Trypanosoma (T.) cruzi
Protocol: as §6, §7, §8, §12, §9
Peritoneal macrophages (1 × 10^5 cells/well) obtained from the peritoneal cavity of BALB/C mice were added to 16-well chambers (NUNC, Thermo Fischer Scientific). The cells were infected with trypomastigotes (10:1 parasites/macrophage) for 2 h. Then treatment of the infected macrophages with selected compounds (serially diluted 1.2 to 100 μM) was performed in a humidified incubator for 48 h at 37 °C and with 5% CO2. The treated cells were fixed on slides using methanol, stained with Giemsa and observed under a light microscope (EVOS M5000, Thermo, USA) with digital image equipment. The infection index was used in order to determine the half inhibitory concentration (IC50) (no. infected macrophages × no. amastigotes / total no.

[3] = Mammalian toxicity, MTT colorimetric; format: cell-based, murine; settings: mouse
Protocol: as §10, with “bioactivity. […]” for “bioactivity.”
as §13, §9, §1, §2, §3, §4, §5, §14, §15, §16, §17

[4] = ± SD, intracellular, peritoneal macrophages
[5] = ± SD, peritoneal macrophages, 48 h, read-out: T. cruzi IC50 amastigotes
[6] = Trypanosoma cruzi, ± SD, resazurin
[7] = Leishmania infantum, Peritoneal macrophage, ± SD, intracellular, peritoneal macrophages
[8] = Trypanosoma cruzi, Peritoneal macrophage, 48 h, ± SD, read-out: T. cruzi IC50 amastigotes

| Molecule | IC50 (T. cruzi trypomastigotes; [6]) [µM] | IC50 ([2]; Leishmania infantum, ± SD, MTT) [µM] | IC50 (L. infantum amastigotes; [7]) [µM] | CC50 at 96 h [3] [µM] | IC50 (T. cruzi amastigotes; [8]) [µM] | also measured |
| --- | --- | --- | --- | --- | --- | --- |
| Phleomycin [reference compound] |  |  |  |  |  | cells with accumulation of RAD51 in the nucleus (mNG::RAD51 promastigotes): 80% |
| COc1ccc2cc1Oc1ccc(cc1)C[C@H]1c3c(cc(OC)c(O)c3Oc3cc4c(cc3OC)CCN[C@@H]4C2)CCN1C [compound 3, daphnandrine] |  |  |  |  |  | IC50 (T. cruzi epimastigotes): 43 µM |
| COc1ccc2cc1Oc1ccc(cc1)C[C@H]1c3cc(OC)c(OC)c(c3CCN1C)Oc1c(O)c(OC)cc3c1[C@H](C2)NCC3 [compound 2, northalrugosidine] |  |  |  |  |  | IC50 [1]: 0.28 µM |
| COc1ccc(COc2ccc(C[C@@H]3c4cc(OC)c(OC)cc4CCN3C)cc2)cc1 [(R)-10c] |  |  |  |  |  | IC50 (T. cruzi trypomastigotes; ± SD, resazurin): 25.3 ± 2.1 µM; IC50 ([2]; ± SD, MTT): 2.4 ± 0.9 µM; IC50 (L. infantum amastigotes; [4]): 9.3 ± 0.4 µM; CC50 (NCTC cells): 28.1 ± 5.5 µM; IC50 (T. cruzi amastigotes; [5]): > 100 µM |
| COc1ccc(COc2ccc(C[C@H]3c4cc(OC)c(OC)cc4CCN3C)cc2)cc1 [(S)-10c] |  |  |  |  |  | IC50 (T. cruzi trypomastigotes; ± SD, resazurin): 20.4 ± 11.4 µM; IC50 ([2]; ± SD, MTT): 4.8 ± 0.2 µM; IC50 (L. infantum amastigotes; [4]): > 150 µM; CC50 (NCTC cells): 5.8 ± 0.5 µM; IC50 (T. cruzi amastigotes; [5]): > 100 µM |
| COc1ccc(COc2ccc(C[C@@H]3c4cc(OC)c(OC)cc4CCN3C)cc2Oc2ccc(C[C@@H]3c4cc(OC)c(OC)cc4CCN3C)cc2)cc1 [(R,R)-12] | 7.3 ± 1.5 | 1.1 ± 0.5 | > 150 | 13.9 ± 1.6 | > 100 |  |
| COc1cc2c(cc1OC)[C@H](Cc1ccc(Oc3cc(C[C@H]4c5cc(OC)c(OC)cc5CCN4C)ccc3O)cc1)N(C)CC2 [(S,S)-13, (+)-dauricine] | 5.1 ± 4.8 | 5.5 ± 0.6 | > 150 | 15.9 ± 0.8 | 2.3 ± 1.1 |  |
| COc1cc2c(cc1OC)[C@H](Cc1ccc(O)cc1)N(C)CC2 [(S)-10b, (+)-armepavine] | 124 ± 2.3 | 36.2 ± 5.2 | > 150 | > 200 | > 100 |  |
| COc1ccc(C[C@H]2c3cc(OC)c(OC)cc3CCN2C)cc1O [(S)-10a, (+)-laudanidine] |  |  |  |  |  | IC50 (T. cruzi trypomastigotes; Trypanosoma cruzi): > 150 µM; IC50 ([2]; Leishmania infantum): 95.4 ± 2 µM; IC50 (L. infantum amastigotes; Leishmania infantum, Peritoneal macrophage): > 150 µM; CC50 at 96 h ([3]; ± SD, NCTC cells, MTT, 96 h, read-out: CC50): > 200 µM; IC50 (T. cruzi amastigotes; Trypanosoma cruzi, Peritoneal macrophage, 48 h, read-out: T. cruzi IC50 amastigotes, ± SD): < 10 µM; IC50 (T. cruzi amastigotes; read-out: T. cruzi IC50 amastigotes, ± SD, peritoneal macrophages, 48 h): 5.9 ± 0.9 µM |
| COc1ccc(COc2ccc(C[C@H]3c4cc(OC)c(OC)cc4CCN3C)cc2Oc2ccc(C[C@@H]3c4cc(OC)c(OC)cc4CCN3C)cc2)cc1 [(S,R)-12] | 1.7 ± 0.3 | 0.7 ± 0.1 | > 150 | 4.7 ± 1.7 | > 100 | L. infantum IC50 promastigotes ([2]; ± SD, MTT): submicromolar |
| COc1cc2c(cc1OC)[C@@H](Cc1ccc(O)c(Oc3ccc(C[C@H]4c5cc(OC)c(OC)cc5CCN4C)cc3)c1)N(C)CC2 [(S,R)-13] | 4.2 ± 4.8 | 5.7 ± 1.3 | 3.6 ± 0.3 | 15.6 ± 1.6 | 4.4 ± 0.4 |  |

From publication PMC10900488, “Synthesis and Evaluation of (Bis)benzyltetrahydroisoquinoline Alkaloids as Antiparasitic Agents” (JACS Au, 2024)
